Molecular target: DGKα (Homo sapiens, UniProt P23743)
Experiment: Human DGKα kinase activity inhibition assay (ADP-Glo)
Assay type: biochemical
Conditions: in vitro human DGKα kinase activity inhibition assay
Experimental: Human DGKα inhibitory activity of compounds of the present invention was quantified employing the human DGKα kinase activity assay as described in the following paragraphs. In essence, the enzyme activity was measured by quantification of the adenosine-di-phosphate (ADP) generated as a co-product of the enzyme reaction via the “ADP-Glo™ Kinase Assay” kit from the company Promega. This detection system works as follows: In a first step the ATP not consumed in the kinase reaction is quantitatively converted to cAMP employing an adenylate cyclase (“ADP-Glo-reagent”), then the adenylate cyclase is stopped and the ADP generated in the kinase reaction converted to ATP, which subsequently generates in a luciferase-based reaction a glow-luminescence signal (“Kinase Detection Reagent”). C-terminally FLAG-tagged, recombinant full-length human DGKα (expressed in baculovirus infected insect cells, purified using anti-Flag pulldown and size exclusion chromatography as described below, DGKα_hu_1) was used as enzyme. As substrate for the kinase 1,2-dioleoyl-sn-glycerol, reconstituted in octyl-β-D-glucopyranoside micelles, was used. For the preparation of the micelles, 1 volume of a 16.1 mM solution of 1,2-dioleoyl-sn-glycerol (Avanti, Cat. #O8001-25G) in chloroform was slowly evaporated using a nitrogen stream. Subsequently, 22.55 volumes of a 510 mM solution of octyl-β-D-glucopyranoside (Sigma-Aldrich, Cat. #O8001-10G) in 50 mM MOPS buffer (pH 7.4) were added, and the mixture was sonicated in an ultrasonic bath for 20 s. Then 35 volumes of 50 mM MOPS buffer (pH 7.4) were added to yield a solution of 0.28 mM 1,2 dioleoyl-sn-glycerol and 200 mM octyl-β-D-glucopyranoside, which was aliquoted, flash-frozen in liquid nitrogen, and stored at −20° C. until use. For each experiment, a fresh aliquot was quickly thawed and diluted 24-fold with aqueous assay buffer (described below) containing 95.7 μM adenosine triphosphate (Promega) to yield a 1.67-fold concentrated substrate solution. For the assay 50 nl of a 100-fold concentrated solution of the test compound in dimethyl sulfoxide (DMSO, Sigma) was pipetted into either a white 1536-well or a white low-volume 384-well microtiter plate (both Greiner Bio-One, Frickenhausen, Germany). […] The concentration of DGK a was adjusted depending of the activity of the enzyme lot and was chosen appropriate to have the assay in the linear range, a typical concentration is about 0.1 nM. The reaction was stopped by the addition of 2.5 μl of “ADP-Glo-reagent” (1 to 1.5 diluted with water) and the resulting mixture was incubated at 22° C. for 1 h to convert the ATP not consumed in the kinase reaction completely to cAMP. […] The amount of emitted light was taken as a measure for the amount of ADP generated and thereby for the activity of the DGKα.

Sequence of DGKα (P23743 with tags, fused parts or gaps): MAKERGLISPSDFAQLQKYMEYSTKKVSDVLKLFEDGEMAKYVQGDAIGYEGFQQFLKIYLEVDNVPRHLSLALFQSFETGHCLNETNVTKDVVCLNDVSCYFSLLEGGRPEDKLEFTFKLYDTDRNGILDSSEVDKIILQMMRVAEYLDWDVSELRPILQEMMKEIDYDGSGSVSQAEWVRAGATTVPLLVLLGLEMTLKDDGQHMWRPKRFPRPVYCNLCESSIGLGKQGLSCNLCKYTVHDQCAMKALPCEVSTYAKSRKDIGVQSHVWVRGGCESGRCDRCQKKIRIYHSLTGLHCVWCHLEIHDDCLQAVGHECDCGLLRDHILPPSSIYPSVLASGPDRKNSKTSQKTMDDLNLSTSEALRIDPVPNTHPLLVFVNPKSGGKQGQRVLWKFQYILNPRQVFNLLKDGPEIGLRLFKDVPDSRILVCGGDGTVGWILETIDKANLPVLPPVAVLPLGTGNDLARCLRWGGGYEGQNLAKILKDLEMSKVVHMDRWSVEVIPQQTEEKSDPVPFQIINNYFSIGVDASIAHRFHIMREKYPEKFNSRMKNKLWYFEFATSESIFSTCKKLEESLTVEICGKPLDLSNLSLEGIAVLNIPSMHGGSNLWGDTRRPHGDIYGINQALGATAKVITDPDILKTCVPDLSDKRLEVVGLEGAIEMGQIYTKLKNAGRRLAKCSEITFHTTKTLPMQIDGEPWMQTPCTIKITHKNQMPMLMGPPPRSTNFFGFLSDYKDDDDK

Row | Structure (SMILES) | IC50
1 | CN1CCN(c2ccc(OC3CCN(c4c(C#N)c(=O)n(C)c5ccccc45)CC3)cc2)C(=O)C1 [Example 24, 1-methyl-4-{4-[4-(4-methyl-2-oxopiperazin-1-yl)phenoxy]piperidin-1-yl}-2-oxo-1,2-dihydroquinoline-3-carbonitrile] | 266 nM
2 | Cn1ccn(-c2ccc(OC3CCN(c4c(C#N)c(=O)n(C)c5ccccc45)CC3)cc2)c1=O [Example 25, 1-methyl-4-{4-[4-(3-methyl-2-oxo-2,3-dihydro-1H-imidazol-1-yl)phenoxy]piperidin-1-yl}-2-oxo-1,2-dihydroquinoline-3-carbonitrile] | 283 nM
3 | CN(C)C(=O)c1ccc(OC2CCN(c3c(C#N)c(=O)n(C)c4ccccc34)CC2)cc1 [Example 26, 4-{[1-(3-cyano-1-methyl-2-oxo-1,2-dihydroquinolin-4-yl)piperidin-4-yl]oxy}-N,N-dimethylbenzamide] | 415 nM
4 | Cn1c(=O)c(C#N)c(N2CCC(Oc3cccc4ocnc34)CC2)c2ccccc21 [Example 27, 4-{4-[(1,3-benzoxazol-4-yl)oxy]piperidin-1-yl}-1-methyl-2-oxo-1,2-dihydroquinoline-3-carbonitrile] | 318 nM
5 | Cn1c(=O)c(C#N)c(N2CCC(Oc3cnc(C(F)(F)F)nc3)CC2)c2ccccc21 [Example 28, 1-methyl-2-oxo-4-(4-{[2-(trifluoromethyl)pyrimidin-5-yl]oxy}piperidin-1-yl)-1,2-dihydroquinoline-3-carbonitrile] | 521 nM
6 | Cn1c(=O)c(C#N)c(N2CCC(Oc3ccc4cnoc4c3)CC2)c2ccccc21 [Example 29, 4-{4-[(1,2-benzoxazol-6-yl)oxy]piperidin-1-yl}-1-methyl-2-oxo-1,2-dihydroquinoline-3-carbonitrile] | 654 nM
7 | Cn1c(=O)c(C#N)c(N2CCC(Oc3ccc(N=S(C)(C)=O)cc3)CC2)c2ccccc21 [Example 30, 4-[4-(4-{[dimethyl(oxo)-λ^6-sulfanylidene]amino}phenoxy)piperidin-1-yl]-1-methyl-2-oxo-1,2-dihydroquinoline-3-carbonitrile] | 1530 nM
8 | COc1cc(C)ccc1OC1CCN(c2c(C#N)c(=O)n(C)c3ccccc23)CC1 [Example 31, 4-[4-(2-methoxy-4-methylphenoxy)piperidin-1-yl]-1-methyl-2-oxo-1,2-dihydroquinoline-3-carbonitrile] | 6.8 nM
9 | Cn1c(=O)c(C#N)c(N2CCC(Oc3ccc(C#N)cc3)CC2)c2ccccc21 [Example 32, 4-[4-(4-cyanophenoxy)piperidin-1-yl]-1-methyl-2-oxo-1,2-dihydroquinoline-3-carbonitrile] | 31 nM
10 | Cn1c(=O)c(C#N)c(N2CCC(Oc3ccccc3F)CC2)c2ccccc21 [Example 33, 4-[4-(2-fluorophenoxy)piperidin-1-yl]-1-methyl-2-oxo-1,2-dihydroquinoline-3-carbonitrile] | 13 nM
11 | Cn1c(=O)c(C#N)c(N2CCC(Oc3ccccc3C#N)CC2)c2ccccc21 [Example 34, 4-[4-(2-cyanophenoxy)piperidin-1-yl]-1-methyl-2-oxo-1,2-dihydroquinoline-3-carbonitrile] | 9 nM
12 | Cn1c(=O)c(C#N)c(N2CCC(Oc3ccc(C(N)=O)cc3)CC2)c2ccccc21 [Example 35, 4-{[1-(3-cyano-1-methyl-2-oxo-1,2-dihydroquinolin-4-yl)piperidin-4-yl]oxy}benzamide] | 646 nM
13 | Cn1c(=O)c(C#N)c(N2CCC(Oc3ccccc3C(F)(F)F)CC2)c2ccccc21 [Example 36, 1-methyl-2-oxo-4-{4-[2-(trifluoromethyl)phenoxy]piperidin-1-yl}-1,2-dihydroquinoline-3-carbonitrile] | 164 nM
14 | Cn1c(=O)c(C#N)c(N2CCC(Oc3ccc(C4CC4)cc3)CC2)c2ccccc21 [Example 37, 4-[4-(4-cyclopropylphenoxy)piperidin-1-yl]-1-methyl-2-oxo-1,2-dihydroquinoline-3-carbonitrile] | 10 nM
15 | Cn1c(=O)c(C#N)c(N2CCC(Oc3cccc(OC(F)(F)F)c3)CC2)c2ccccc21 [Example 38, 1-methyl-2-oxo-4-{4-[3-(trifluoromethoxy)phenoxy]piperidin-1-yl}-1,2-dihydroquinoline-3-carbonitrile] | 18 nM
16 | Cn1c(=O)c(C#N)c(N2CCC(Oc3ccc(OC(F)F)cc3)CC2)c2ccccc21 [Example 39, 4-{4-[4-(difluoromethoxy)phenoxy]piperidin-1-yl}-1-methyl-2-oxo-1,2-dihydroquinoline-3-carbonitrile] | 4 nM
17 | Cn1c(=O)c(C#N)c(N2CCC(C)(Oc3ccc([N+](=O)[O-])cc3)CC2)c2ccccc21 [Example 40, 1-methyl-4-[4-methyl-4-(4-nitrophenoxy)piperidin-1-yl]-2-oxo-1,2-dihydroquinoline-3-carbonitrile] | 11 nM
18 | Cn1c(=O)c(C#N)c(N2CCC(C)(Oc3ccc(N)cc3)CC2)c2ccccc21 [Example 41, 4-[4-(4-aminophenoxy)-4-methylpiperidin-1-yl]-1-methyl-2-oxo-1,2-dihydroquinoline-3-carbonitrile] | 173 nM
19 | Cn1c(=O)c(C#N)c(N2CCC(C)(Oc3ccc(Br)cc3)CC2)c2ccccc21 [Example 42, 4-[4-(4-bromophenoxy)-4-methylpiperidin-1-yl]-1-methyl-2-oxo-1,2-dihydroquinoline-3-carbonitrile] | 27 nM
20 | Cn1c(=O)c(C#N)c(N2CCC(Oc3ccc(S(C)(=O)=O)cc3)CC2)c2ccccc21 [Example 43, 4-{4-[4-(methanesulfonyl)phenoxy]piperidin-1-yl}-1-methyl-2-oxo-1,2-dihydroquinoline-3-carbonitrile] | 339 nM
21 | COCCOc1ccc(OC2CCN(c3c(C#N)c(=O)n(C)c4ccccc34)CC2)cc1 [Example 44, 4-{4-[4-(2-methoxyethoxy)phenoxy]piperidin-1-yl}-1-methyl-2-oxo-1,2-dihydroquinoline-3-carbonitrile] | 45 nM
22 | CN(C)c1ccc(OC2CCN(c3c(C#N)c(=O)n(C)c4ccccc34)CC2)cc1 [Example 45, 4-{4-[4-(dimethylamino)phenoxy]piperidin-1-yl}-1-methyl-2-oxo-1,2-dihydroquinoline-3-carbonitrile] | 31 nM
23 | COc1ccc(OC2CCN(c3c(C#N)c(=O)n(C)c4ccccc34)CC2)cc1 [Example 46, 4-[4-(4-methoxyphenoxy)piperidin-1-yl]-1-methyl-2-oxo-1,2-dihydroquinoline-3-carbonitrile] | 32 nM
24 | CC(C)Oc1ccc(OC2CCN(c3c(C#N)c(=O)n(C)c4ccccc34)CC2)cc1 [Example 47, 1-methyl-2-oxo-4-(4-{4-[(propan-2-yl)oxy]phenoxy}piperidin-1-yl)-1,2-dihydroquinoline-3-carbonitrile] | 8.6 nM
25 | Cn1c(=O)c(C(N)=O)c(N2CCC(Oc3ccc(OC(F)(F)F)cc3)CC2)c2ccccc21 [Example 48, 1-methyl-2-oxo-4-{4-[4-(trifluoromethoxy)phenoxy]piperidin-1-yl}-1,2-dihydroquinoline-3-carboxamide] | 0.9 nM
26 | Cn1c(=O)c(C(N)=O)c(N2CCC(Oc3cccc(Cl)c3)CC2)c2ccccc21 [Example 49, 4-[4-(3-chlorophenoxy)piperidin-1-yl]-1-methyl-2-oxo-1,2-dihydroquinoline-3-carboxamide] | 1.7 nM
27 | Cn1c(=O)c(C(N)=O)c(N2CCC(Oc3ccc(Cl)cc3)CC2)c2ccccc21 [Example 50, 4-[4-(4-chlorophenoxy)piperidin-1-yl]-1-methyl-2-oxo-1,2-dihydroquinoline-3-carboxamide] | 3.1 nM

Reference: patent publication US20230062100A1, “SUBSTITUTED AMINOQUINOLONES AS DGKALPHA INHIBITORS FOR IMMUNE ACTIVATION” (Bayer Aktiengesellschaft, priority 2019, published 2023)
